# Values of other authors as cited in US20110177137A1, “NOVEL DOSAGE FORM OF PALIPERIDONE AND PROCESS FOR PREPARING THE SAME” (INTAS PHARMACEUTICALS LIMITED, priority 2008, published 2011).
compound,measurement,setting,value
Cc1nc2n(c(=O)c1CCN1CCC(c3noc4cc(F)ccc34)CC1)CCCC2O (stereo not drawn) [Paliperidone],solubility in 0.1 N HCl,0.1 N HCl,soluble
same,solubility in methyl chloride,methyl chloride,partly soluble
same,solubility in water,water,insoluble
